The source of these data is patent US12128049B2, “Dosage regimen of paliperidone palmitate extended-release injectable suspension” (Luye Innomind Pharma Shijiazhuang Co., Ltd., priority 2017, dated 2024).

Data set [1] can be described thus: PK in beagle dogs under RLD regimen: IM 4.6 mg/kg day 1, 3.1 mg/kg day 8, 2.3 mg/kg day 36 (Groups I, IV). It is filed as in vivo. Here is the method: (§1) 20 healthy male beagle dogs (average weight about 11 kg) were randomly divided into 5 groups (Groups I-V) with 4 dogs in each group. Each animal was assigned its own number (#1-#20).
(§2) Group I animals (#1-#4) and Group IV animals (#13-#16) were tested under RLD regimen. Group II animals (#5-#8) were tested under Regimen A. Group III animals (#9-#12) and Group V animals (#17-#20) were tested under Regimen B. Table 5 summarizes the respective human dosages (mg of paliperidone) and the equivalent animal dosages (converted to mg/kg) and the dosing intervals under each dosing regimen.
(§3) The animals in each group received intramuscular injections according to the dosing regimen assigned to the group. Blood samples (1 ml/collection) were collected from the forelimb vein of each beagle immediate before administration (at 0 h), and thereafter at time intervals of 6 h (day 1), 24 hr (day 2), day 3, day 5, day 8 (prior to dosing for groups receiving RLD regimen), day 9, day 11, day 13, day 15 (prior to dosing for groups receiving Regimen A), day 17, day 19, day 22, day 24, day 26, day 29 (prior to dosing for groups receiving Regimen A), day 30, day 32, day 34, day 36 (prior to dosing for groups receiving RLD and Regimen A), day 37, day 39, day 42, day 45, day 47, day 50, day 53, day 57, day 64, day 71, day 78, and day 85. The blood samples were placed in heparinized centrifuge tubes and centrifuged for 10 min (3500 rpm). The plasma was separated, collected and stored under −80° C.

Data set [2] is described as follows: PK in beagle dogs under Regimen A: IM 6.2 mg/kg day 1, 1.5 mg/kg day 15, 2.3 mg/kg day 36 (Group II). Type of data set: in vivo. Here is the method: as §1, §2, §3
Data set [3] can be described thus: PK in beagle dogs under Regimen B: IM 6.9 mg/kg day 1, 3.1 mg/kg day 29 (Groups III, V). It is filed as in vivo. The protocol:
as §1, §2, §3

For data set [4] the following is noted: over a broad pH range; cited from earlier work.
[5] abbreviates: Regimen B, Group V vs Group IV (FIG. 10B).

Values joined by “and” are separate entries in the source; they are usually repeats but may differ in a detail not shown here. Identical values can stand only once.

With `CCCCCCCCCCCCCCCC(=O)OC1CCCn2c1nc(C)c(CCN1CCC(c3noc4cc(F)ccc34)CC1)c2=O` (racemic) [paliperidone palmitate, (9RS)-3-[2-[4-(6-Fluoro-1,2-benzisoxazol-3-yl)piperidin-1-yl]ethyl]-2-methyl-4-oxo-6,7,8,9-tetrahydro-4H-pyrido[1,2-a]pyrimadin-9-yl hexadecanoate], the AUC(0-t) (usually exposure summed from dosing to a finite time, without extrapolation to infinity) was 3632.18 µg·days/L and 2010.03 µg·days/L and 3477.47 µg·days/L and 4210.47 µg·days/L in data set [1] (Group I, individual dogs); 3332.54 µg·days/L in data set [1] (Group I, mean); 2528.69 µg·days/L and 3241.40 µg·days/L and 3191.02 µg·days/L and 1190.27 µg·days/L in data set [1] (Group IV, individual dogs); 2537.85 µg·days/L in data set [1] (Group IV, mean); 4069.12 µg·days/L and 3146.75 µg·days/L and 3336.44 µg·days/L and 2282.89 µg·days/L in data set [2] (individual dogs); 3208.80 µg·days/L in data set [2] (mean). The “AUC(0-∞)” value in data set [1] (Group I, individual dogs) is 3682.95 µg·days/L and 2012.83 µg·days/L and 4010.14 µg·days/L and 4214.96 µg·days/L; in data set [1] (Group I, mean) it was 3480.22 µg·days/L; in data set [1] (Group IV, individual dogs), 2546.38 µg·days/L and 3312.15 µg·days/L and 3194.15 µg·days/L and 1311.82 µg·days/L; in data set [1] (Group IV, mean), 2591.12 µg·days/L; in data set [2] (individual dogs) it was 4285.47 µg·days/L and 3544.02 µg·days/L and 3446.66 µg·days/L and 2612.80 µg·days/L; in data set [2] (mean), 3472.24 µg·days/L. For the same molecule, in data set [3] (RLD Regimen, Regimen A and Regimen B, Groups I-III (FIG. 10A)), the “overall drug exposures (AUC)” value is “comparable for all three Regimens”. Besides, the “Cmax vs RLD Regimen” value is “comparable to that of RLD Regimen” in data set [3] (Regimen B, Group III vs Group I (FIG. 10A)) and “comparable to that of RLD Regimen” in data set [3] (setting [5]). The “time to Cmax vs RLD Regimen” value in data set [3] (setting [5]) was “reached Cmax earlier”. Moreover, in data set [3] (setting [5]), the “trough (day 28) vs RLD Regimen” value was “comparable to the same-day concentration of RLD Regimen and higher than the trough of the RLD Regimen”. Besides, the “solubility in aqueous media” value in data set [4] is “practically insoluble”.
